# Data reported in patent US20100069502A1, “Assay” (priority 2006, published 2010).
# Assays:
# Format in all cases: cell-based
# PPM phosphatase [1] = experiment: Mg2+ dependent, okadaic acid resistant casein phosphatase (PPM phosphatase) activity in HEK293 cell lysates; settings: HEK293 cells, 2 mM metformin
# Method: (§1) A PPM phosphatase activity in treated and untreated HEK293 cell lysates using casein as substrate in the presence of 10 mM MgAc and 5 μM okadaic acid. Data are mean±SEM with five independent samples measured in duplicate. (p<0.001). B PPM phosphatase activity in treated and untreated HeLa cell lysates using casein as substrate in the presence of 10 mM MgAc and 5 μM okadaic acid. Data are mean±SEM with four independent samples measured in duplicate. (p<0.001).
# (§2) To study the effects of biguanide on the activity of protein phosphatases, HEK293 cell lysates either untreated or treated with biguanide (10 mM phenformin in this example—as described above) were either immunoblotted or assayed for specific protein phosphatase activity by using combinations of phosphatase inhibitors and activators, as well as different phosphorylated substrates.
# (§3) The activity of PP2C (PPM1) and related members of the PPM family was assessed using ^32P-labelled casein as substrate with 5 μM okadaic acid included in the reaction to inhibit PP2A, and 10 mM magnesium acetate, which is known to be required for the activity of PP2C (Ingebritsen and Cohen, 1983 Science vol 221, pp 331-338; Ingebritsen et al., 1983 Eur J Biochem vol 132, pp 263-274).
# PPM phosphatase [2] = experiment: Mg2+ dependent, okadaic acid resistant casein phosphatase (PPM phosphatase) activity in HeLa cell lysates; settings: HeLa cells, 2 mM metformin
# Method: as §1, §3
# To test whether phenformin is able to have similar effects in this cell line, PPM phosphatase activity in HeLa cells either untreated or treated with 10 mM phenformin was assessed. Again, a ˜20% decrease in PPM phosphatase activity could be observed in cells treated with phenformin (FIG. 2B). In this experiment, the activity of many PP2C isoforms is measured, and the 20% decrease observed may represent a more severe decrease in activity of only one such isoform.
# PPM1E = molecular target: T1, PPM1E (Homo sapiens, UniProt Q8WY54); experiment: Activity of PPM phosphatase immunoprecipitated from HEK293 cell lysates, casein substrate; settings: HEK293 cells, 2 mM metformin for 10 minutes prior to lysis
# T1 construct: The PPM1A1 and PPM1E isoforms were immunoprecipitated in triplicate from untreated or metformin-treated HEK293 cell lysates; endogenous in cells; host or cells: HEK293
# T1 sequence (Q8WY54 1-755): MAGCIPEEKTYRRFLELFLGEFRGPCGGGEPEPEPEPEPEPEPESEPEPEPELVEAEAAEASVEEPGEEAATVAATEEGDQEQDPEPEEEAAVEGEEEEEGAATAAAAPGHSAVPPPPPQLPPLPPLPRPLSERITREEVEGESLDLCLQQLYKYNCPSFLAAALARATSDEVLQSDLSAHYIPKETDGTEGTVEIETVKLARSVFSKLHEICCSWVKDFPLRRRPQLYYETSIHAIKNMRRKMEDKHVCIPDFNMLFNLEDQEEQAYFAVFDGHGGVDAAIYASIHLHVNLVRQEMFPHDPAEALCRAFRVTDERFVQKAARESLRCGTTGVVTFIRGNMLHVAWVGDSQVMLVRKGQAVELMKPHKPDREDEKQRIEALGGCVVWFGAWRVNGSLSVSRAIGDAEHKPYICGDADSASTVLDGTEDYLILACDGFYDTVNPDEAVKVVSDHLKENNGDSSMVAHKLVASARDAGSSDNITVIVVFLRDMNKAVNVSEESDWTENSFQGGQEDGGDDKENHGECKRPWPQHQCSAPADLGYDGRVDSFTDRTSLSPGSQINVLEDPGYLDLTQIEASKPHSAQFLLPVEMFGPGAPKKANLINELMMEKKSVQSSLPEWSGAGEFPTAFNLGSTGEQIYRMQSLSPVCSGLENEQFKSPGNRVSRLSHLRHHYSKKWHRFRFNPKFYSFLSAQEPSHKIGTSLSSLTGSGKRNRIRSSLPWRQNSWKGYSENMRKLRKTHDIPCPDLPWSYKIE
# Method: PPM1E is immunopelleted with antibodies raised the amino acid sequence […] and the phosphatase activity in the immunopellet is measured in a protein phosphatase assay using 32P-labelled casein as substrate in the presence of 10 mM Mg2+ or Mn2+ ions and 5 μM okadaic acid.
# (§4) PPM phosphatase activity in HEK293 cell lysates either untreated or treated with 10 mM phenformin for 1 hour. Individual isoforms were immunoprecipitated from control or phenformin-treated cell lysates and activity measured using ^32P labelled casein as substrate in the presence of 10 mM MgAc and […] acid. Data are mean activities for assays performed in triplicate.
# (§5) To determine with greater certainty which PPM phosphatases are affected by biguanide, the PPM phosphatase activity associated with each of the PPM enzymes was assessed. […] No change could be detected in the PPM phosphatases associated with PPM1A1, PPM1B1, PPM1B2, PPM1D, PPM1G, ILKAP, Nerpp, PDPC1 or PDPC2. […] Following immunoprecipitation and immunoblotting of the PPM1E immunoprecipitate from untreated HEK293 cells, no signal could be detected using an antibody directed against PPM1E.
# HEK293 cells were treated with 2 mM metformin for 10 minutes prior to lysis. […] Control immunoprecipitations were preformed in triplicate for each lysate using pre-immune antibody and subtracted from the activity calculated for the PPM phosphatase immunoprecipitations. […]
# PP5 = PP5 levels by immunoblotting in HEK293 cell lysates; settings: HEK293 cells, 10 mM phenformin, antibody against TPR domains
# Method: as §2
# Since the activity of PP5 in HEK293 cells is low, the levels of PP5 were assessed by immunoblotting using an antibody against the TPR domains of the protein.
# PP1 = PP1 phosphorylase phosphatase activity in HEK293 cell lysates; settings: 10 mM phenformin, 32P-labelled phosphorylase a, 4 mM okadaic acid
# Method: (§6) A Levels of phosphorylation of AMPK at Thr172 in 4 untreated and 4 treated samples. Anti-PP5 TPR domain antibody is used as a loading control. Molecular weights (kDa) are indicated to the left of the panels. B PP1 phosphorylase phosphatase activity in treated and untreated HEK293 cell lysates using phosphorylase a as substrate, in the presence of 4 nM okadaic acid. Data are mean±SEM for four samples measured in triplicate. C PP2A phosphorylase phosphatase activity in treated and untreated HEK293 cell lysates using phosphorylase a as substrate, in the presence of 200 nM I-2. Data are mean±SEM for four samples measured in triplicate. […]
# The activity of PP1 in response to phenformin was assessed using ^32P-labelled phosphorylase a as substrate with […] okadaic acid included in the reaction in order to inhibit the activity of PP2A and EGTA (0.1-2 mM) to inhibit metal ion activated protein phosphatases. No change in PP1 phosphorylase phosphatase activity could be detected between unstimulated and 10 mM-phenformin stimulated cell lysates (FIG. 1B).
# PP2A = PP2A phosphorylase phosphatase activity in HEK293 cell lysates; settings: 10 mM phenformin, 32P labelled phosphorylase a, 200 nM I-2
# Method: as §6
# The activity of PP2A in response to phenformin was also assessed using ^32P labelled phosphorylase a as substrate, but for this assay 200 nM I-2 and EGTA (0.1-2 mM) to inhibit metal ion activated protein phosphatases was included to inhibit PP1. No change in the PP2A phosphorylase phosphatase activity could be detected between unstimulated and 10 mM-phenformin stimulated cell lysates (FIG. 1C).
# PPM1F = molecular target: T2, PPM1F (Homo sapiens, UniProt P49593); experiment: Activity of PPM phosphatase immunoprecipitated from HEK293 cell lysates, casein substrate
# T2 construct: endogenous in cells; host or cells: HEK293
# T2 sequence (P49593 1-454): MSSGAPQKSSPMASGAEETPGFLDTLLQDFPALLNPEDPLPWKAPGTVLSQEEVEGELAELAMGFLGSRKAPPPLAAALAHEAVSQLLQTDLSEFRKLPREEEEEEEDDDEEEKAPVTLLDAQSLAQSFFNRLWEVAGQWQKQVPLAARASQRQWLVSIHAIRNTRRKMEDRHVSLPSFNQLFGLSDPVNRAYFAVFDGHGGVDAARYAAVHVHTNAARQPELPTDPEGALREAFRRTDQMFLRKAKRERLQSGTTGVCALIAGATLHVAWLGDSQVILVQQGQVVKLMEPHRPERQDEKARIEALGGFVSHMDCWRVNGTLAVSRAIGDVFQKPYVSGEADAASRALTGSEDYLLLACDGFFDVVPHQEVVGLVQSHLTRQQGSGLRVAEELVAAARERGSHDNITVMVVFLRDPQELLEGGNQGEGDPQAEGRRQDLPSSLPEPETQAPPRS
# Method: PPM1F is immunopelleted with antibodies raised the amino acid sequence […] and the phosphatase activity in the immunopellet is measured in a protein phosphatase assay using 32P-labelled casein as substrate in the presence of 10 mM Mg2+ or Mn2+ ions and 5 μM okadaic acid.
# as §4
# as §5, with “assessed. In this example, the biguanides are metformin and phenformin.” for “assessed.”
activity of immunoprecipitated PPM1E (PPM1E),activity of immunoprecipitated PPM1E (PPM1E; listed as Metformin),SMILES,decrease in PPM phosphatase activity (PPM phosphatase [1]) [%],decrease in PPM phosphatase activity (PPM phosphatase [2]) [%],levels of PP5 (PP5),PP1 phosphorylase phosphatase activity (PP1),PP2A phosphorylase phosphatase activity (PP2A),"activity of immunoprecipitated PPM1F, % of the levels of untreated cells (PPM1F; HEK293 cells treated with phenformin) [%]","decrease in activity of immunoprecipitated PPM1F (PPM1F; HEK293 cells, 10 mM phenformin) [%]"
almost completely ablated,Substantial specific knockdown,"CN(C)C(=N)N=C(N)N [metformin, 1-(diaminomethylidene)-3,3-dimethyl-guanidine]",20,20,–,–,–,–,–
–,–,"[H]/N=C(/N)N/C(=N/[H])NCCc1ccccc1 [phenformin, phenylethylbiguanide]",–,–,no effect,no effect,no effect,~60,~40
